From patent publication US10131652B2, “Pyrimidinyloxy benzene derivatives as herbicides” (E. I. DU PONT DE NEMOURS AND COMPANY, priority 2014, dated 2018)
Read-outs that look alike come from different tables or passages of the source.

Key:
Test in all cases: Test F pre-/postemergence plant response
Assay type in all cases: in vivo
[1] = tested on: arrowleaf sida (Sida rhombifolia); conditions: Sida rhombifolia, scale 0 to 100, read-out: Plant response rating, Arrowleaf Sida
How it was run: (§1)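 Values are visual ratings, where 100 is complete control and 0 is no effect, given after 14 to 21 days of greenhouse growth. Test chemicals in a non-phytotoxic, surfactant-containing solvent were sprayed on soil just after planting or on emerged seedlings at the 1- to 4-leaf stage.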

corn (Zea mays) = conditions: Zea mays, scale 0 to 100
How it was run: as §1

[2] = tested on: fall panicum (Panicum dichotomiflorum); conditions: Panicum dichotomiflorum, scale 0 to 100, read-out: Plant response rating, Panicum, Fall
How it was run: as §1

[3] = tested on: field bindweed (Convolvulus arvensis); conditions: Convolvulus arvensis, scale 0 to 100, read-out: Plant response rating, Field Bindweed
How it was run: as §1

[4] = tested on: goosegrass (Eleusine indica); conditions: Eleusine indica, pre-emergence, scale 0 to 100, read-out: Plant response rating, Goosegrass
How it was run: as §1

[5] = tested on: green foxtail (Setaria viridis); conditions: Setaria viridis, pre-emergence, scale 0 to 100, read-out: Plant response rating, Foxtail, Green
How it was run: as §1

[6] = tested on: hairy beggarticks (Bidens pilosa); conditions: Bidens pilosa, scale 0 to 100, read-out: Plant response rating, Beggarticks
How it was run: as §1

[7] = tested on: johnsongrass (Sorghum halepense); conditions: Sorghum halepense, pre-emergence, scale 0 to 100, read-out: Plant response rating, Johnsongrass
How it was run: as §1

kochia (Kochia scoparia) = conditions: Bassia scoparia, pre-emergence, scale 0 to 100, read-out: Plant response rating, Kochia
How it was run: as §1

[8] = tested on: nightshade (eastern black nightshade, Solanum ptycanthum); conditions: Solanum, pre-emergence, scale 0 to 100, read-out: Plant response rating, Nightshade
How it was run: as §1

[9] = tested on: palmer pigweed (Amaranthus palmeri); conditions: Amaranthus palmeri, scale 0 to 100, read-out: Plant response rating, Pigweed, Palmer
How it was run: as §1

[10] = tested on: ragweed (common ragweed, Ambrosia elatior); conditions: Ambrosia artemisiifolia, pre-emergence, scale 0 to 100, read-out: Plant response rating, Ragweed
How it was run: as §1

[11] = tested on: velvetleaf (Abutilon theophrasti); conditions: Abutilon theophrasti, pre-emergence, scale 0 to 100, read-out: Plant response rating, Velvetleaf
How it was run: as §1

[12] = tested on: waterhemp (common waterhemp, Amaranthus rudis); conditions: Amaranthus tuberculatus, scale 0 to 100, read-out: Plant response rating, Waterhemp
How it was run: as §1

[13] = tested on: wild poinsettia (Euphorbia heterophylla); conditions: Euphorbia heterophylla, scale 0 to 100, read-out: Plant response rating, Poinsettia, Wild
How it was run: as §1

[14] = tested on: yellow nutsedge (Cyperus esculentus); conditions: Cyperus, pre-emergence, scale 0 to 100, read-out: Plant response rating, Nutsedge, Yellow
How it was run: as §1

[15] = post-emergence, 8 g ai/ha Postemergence
[16] = post-emergence, 16 g ai/ha Postemergence
[17] = post-emergence, 31 g ai/ha Postemergence
[18] = post-emergence, 62 g ai/ha Postemergence
[19] = post-emergence, 125 g ai/ha Postemergence
[20] = pre-emergence, 8 g ai/ha Preemergence
[21] = pre-emergence, 16 g ai/ha Preemergence
[22] = pre-emergence, 31 g ai/ha Preemergence
[23] = pre-emergence, 62 g ai/ha Preemergence
[24] = pre-emergence, 125 g ai/ha Preemergence

FC(F)(F)c1cc(-c2ccccc2Oc2ncc(Cl)cn2)no1 [Compound 200, 5-chloro-2-[2-[5-(trifluoromethyl)-3-isoxazolyl]phenoxy]pyrimidine]
pest or weed control at 8 g/ha [1, 15]: 65%
pest or weed control at 16 g/ha [1, 16]: 75%
pest or weed control at 31 g/ha [1, 17]: 85%
pest or weed control at 62 g/ha [1, 18]: 95%
pest or weed control at 125 g/ha [1, 19]: 95%
pest or weed control at 8 g/ha [1, 20]: 0%
pest or weed control at 16 g/ha [1, 21]: 65%
pest or weed control at 31 g/ha [1, 22]: 100%
pest or weed control at 62 g/ha [1, 23]: 100%
pest or weed control at 125 g/ha [1, 24]: 100%
Corn plant response rating (crop injury, 0 = no effect, 100 = complete kill) at 8 g/ha (corn (Zea mays); [15]): 0%
Corn plant response rating (crop injury, 0 = no effect, 100 = complete kill) at 16 g/ha (corn (Zea mays); [16]): 0%
Corn plant response rating (crop injury, 0 = no effect, 100 = complete kill) at 31 g/ha (corn (Zea mays); [17]): 10%
Corn plant response rating (crop injury, 0 = no effect, 100 = complete kill) at 62 g/ha (corn (Zea mays); [18]): 20%
Corn plant response rating (crop injury, 0 = no effect, 100 = complete kill) at 125 g/ha (corn (Zea mays); [19]): 25%
Corn plant response rating (crop injury, 0 = no effect, 100 = complete kill) at 8 g/ha (corn (Zea mays); [20]): 0%
Corn plant response rating (crop injury, 0 = no effect, 100 = complete kill) at 16 g/ha (corn (Zea mays); [21]): 0%
Corn plant response rating (crop injury, 0 = no effect, 100 = complete kill) at 31 g/ha (corn (Zea mays); [22]): 0%
Corn plant response rating (crop injury, 0 = no effect, 100 = complete kill) at 62 g/ha (corn (Zea mays); [23]): 0%
Corn plant response rating (crop injury, 0 = no effect, 100 = complete kill) at 125 g/ha (corn (Zea mays); [24]): 0%
pest or weed control at 8 g/ha [2, 15]: 5%
pest or weed control at 16 g/ha [2, 16]: 5%
pest or weed control at 31 g/ha [2, 17]: 5%
pest or weed control at 62 g/ha [2, 18]: 5%
pest or weed control at 125 g/ha [2, 19]: 15%
pest or weed control at 8 g/ha [2, 20]: 0%
pest or weed control at 16 g/ha [2, 21]: 70%
pest or weed control at 31 g/ha [2, 22]: 35%
pest or weed control at 125 g/ha [2, 24]: 100%
pest or weed control at 62 g/ha ([2]; pre-emergence, Preemergence): 98%
pest or weed control at 8 g/ha [3, 15]: 20%
pest or weed control at 16 g/ha [3, 16]: 20%
pest or weed control at 31 g/ha [3, 17]: 35%
pest or weed control at 62 g/ha [3, 18]: 35%
pest or weed control at 125 g/ha [3, 19]: 35%
pest or weed control at 8 g/ha [3, 20]: 0%
pest or weed control at 16 g/ha [3, 21]: 0%
pest or weed control at 31 g/ha [3, 22]: 30%
pest or weed control at 62 g/ha [3, 23]: 30%
pest or weed control at 125 g/ha [3, 24]: 30%
pest or weed control at 8 g/ha ([4]; 8 g ai/ha Preemergence): 10%
pest or weed control at 16 g/ha ([4]; 16 g ai/ha Preemergence): 70%
pest or weed control at 31 g/ha ([4]; 31 g ai/ha Preemergence): 80%
pest or weed control at 125 g/ha ([4]; 125 g ai/ha Preemergence): 98%
pest or weed control at 62 g/ha ([4]; Preemergence): 95%
pest or weed control at 8 g/ha ([5]; 8 g ai/ha Preemergence): 0%
pest or weed control at 16 g/ha ([5]; 16 g ai/ha, Preemergence): 10%
pest or weed control at 31 g/ha ([5]; 31 g ai/ha, Preemergence): 98%
pest or weed control at 125 g/ha ([5]; 125 g ai/ha, Preemergence): 100%
pest or weed control at 62 g/ha ([5]; Preemergence): 100%
pest or weed control at 8 g/ha [6, 15]: 0%
pest or weed control at 16 g/ha [6, 16]: 0%
pest or weed control at 31 g/ha [6, 17]: 5%
pest or weed control at 62 g/ha [6, 18]: 10%
pest or weed control at 125 g/ha [6, 19]: 10%
pest or weed control at 8 g/ha [6, 20]: 0%
pest or weed control at 16 g/ha [6, 21]: 0%
pest or weed control at 31 g/ha [6, 22]: 0%
pest or weed control at 62 g/ha [6, 23]: 0%
pest or weed control at 125 g/ha [6, 24]: 0%
pest or weed control at 8 g/ha ([7]; 8 g ai/ha Preemergence): 0%
pest or weed control at 16 g/ha ([7]; 16 g ai/ha Preemergence): 0%
pest or weed control at 31 g/ha ([7]; 31 g ai/ha Preemergence): 5%
pest or weed control at 125 g/ha ([7]; 125 g ai/ha Preemergence): 90%
pest or weed control at 62 g/ha ([7]; Preemergence): 35%
pest or weed control at 8 g/ha (kochia (Kochia scoparia); 8 g ai/ha Preemergence): 20%
pest or weed control at 16 g/ha (kochia (Kochia scoparia); 16 g ai/ha, Preemergence): 25%
pest or weed control at 31 g/ha (kochia (Kochia scoparia); 31 g ai/ha, Preemergence): 50%
pest or weed control at 125 g/ha (kochia (Kochia scoparia); 125 g ai/ha, Preemergence): 100%
pest or weed control at 62 g/ha (kochia (Kochia scoparia); Preemergence): 80%
pest or weed control at 8 g/ha ([8]; 8 g ai/ha Preemergence): 0%
pest or weed control at 16 g/ha ([8]; 16 g ai/ha Preemergence): 35%
pest or weed control at 31 g/ha ([8]; 31 g ai/ha Preemergence): 60%
pest or weed control at 125 g/ha ([8]; 125 g ai/ha Preemergence): 98%
pest or weed control at 62 g/ha ([8]; Preemergence): 98%
pest or weed control at 8 g/ha [9, 15]: 85%
pest or weed control at 16 g/ha [9, 16]: 95%
pest or weed control at 31 g/ha [9, 17]: 98%
pest or weed control at 62 g/ha [9, 18]: 100%
pest or weed control at 125 g/ha [9, 19]: 100%
pest or weed control at 8 g/ha [9, 20]: 0%
pest or weed control at 16 g/ha [9, 21]: 85%
pest or weed control at 31 g/ha [9, 22]: 100%
pest or weed control at 125 g/ha [9, 24]: 100%
pest or weed control at 62 g/ha ([9]; pre-emergence, Preemergence): 100%
pest or weed control at 8 g/ha ([10]; 8 g ai/ha Preemergence): 0%
pest or weed control at 16 g/ha ([10]; 16 g ai/ha Preemergence): 0%
pest or weed control at 31 g/ha ([10]; 31 g ai/ha Preemergence): 10%
pest or weed control at 125 g/ha ([10]; 125 g ai/ha Preemergence): 40%
pest or weed control at 62 g/ha ([10]; Preemergence): 35%
pest or weed control at 8 g/ha ([11]; 8 g ai/ha Preemergence): 0%
pest or weed control at 16 g/ha ([11]; 16 g ai/ha Preemergence): 25%
pest or weed control at 31 g/ha ([11]; 31 g ai/ha Preemergence): 80%
pest or weed control at 125 g/ha ([11]; 125 g ai/ha Preemergence): 100%
pest or weed control at 62 g/ha ([11]; Preemergence): 100%
pest or weed control at 8 g/ha [12, 15]: 75%
pest or weed control at 16 g/ha [12, 16]: 80%
pest or weed control at 31 g/ha [12, 17]: 95%
pest or weed control at 62 g/ha [12, 18]: 98%
pest or weed control at 125 g/ha [12, 19]: 100%
pest or weed control at 8 g/ha [12, 20]: 70%
pest or weed control at 16 g/ha [12, 21]: 98%
pest or weed control at 31 g/ha [12, 22]: 100%
pest or weed control at 125 g/ha [12, 24]: 100%
pest or weed control at 62 g/ha ([12]; pre-emergence, Preemergence): 100%
pest or weed control at 8 g/ha [13, 15]: 35%
pest or weed control at 16 g/ha [13, 16]: 50%
pest or weed control at 31 g/ha [13, 17]: 40%
pest or weed control at 62 g/ha [13, 18]: 60%
pest or weed control at 125 g/ha [13, 19]: 80%
pest or weed control at 8 g/ha [13, 20]: 0%
pest or weed control at 16 g/ha [13, 21]: 0%
pest or weed control at 31 g/ha [13, 22]: 20%
pest or weed control at 125 g/ha [13, 24]: 70%
pest or weed control at 62 g/ha ([13]; pre-emergence, Preemergence): 60%
pest or weed control at 8 g/ha ([14]; 8 g ai/ha Preemergence): 0%
pest or weed control at 16 g/ha ([14]; 16 g ai/ha Preemergence): 0%
pest or weed control at 31 g/ha ([14]; 31 g ai/ha Preemergence): 0%
pest or weed control at 125 g/ha ([14]; 125 g ai/ha Preemergence): 35%
pest or weed control at 62 g/ha ([14]; Preemergence): 10%
